This is an account of results in a melting point compilation (Tetko et al.; mined from patent text by program, amines drawn as free bases though some values may be those of a salt).

SMILES strings stand for the structures.

Consider `O=c1oc2ccccc2n1Sc1ccc(Cl)cc1`, for which the melting point (usually the temperature, or range, at which the solid turns liquid) fell in the range of 134 to 137 °C.

`COC(=O)C=Cc1cc(-c2nn(C)c(C(F)(F)F)c2Cl)c(F)cc1Cl`: the melting point was 117 °C.

As for `CN(C(=O)c1ccc(Cl)cc1)c1ccccc1CCCC(=O)O`, the melting point came to 123 °C.

Turning to `CCCc1ccccc1OCCCOc1ccc2c(=O)cc(C(N)=O)oc2c1`, the melting point is 210 to 213 °C.

`COCCn1nc2ccccc2c1C(=O)NCC1CCN(CCc2ccccc2F)CC1` showed a melting point of 128 to 130 °C.

`CCOC(=O)N1CCN(CCNc2ncnc3c2sc2nc(N4CCCC4)c4c(c23)CC(C)(C)CC4)CC1` came in with a melting point of 76.2 to 77.8 °C.

As for `N#Cc1cscc1Sc1ccccc1`, the melting point lay in the range of 32 to 34 °C.

`COc1ccc(CNc2nc(N)nc3c2ncn3C2CC(F)C(CO)O2)cc1` (stereo unspecified) came in with a melting point of 194 to 195 °C.

Consider `Cc1ccc(C)c(-c2nn(C(C)(C)C(=O)N(C)C)cc2C)c1`, for which the melting point lay within 93 to 95 °C.

In turn, `CCCCOc1cc(C)c(O)cc1C` returned a melting point of 43 to 45 °C.

Turning to `Cc1ccc(-c2[nH]c(-c3ccccc3[N+](=O)[O-])nc2C(=O)Nc2nccs2)cc1`, the melting point lay within 203 to 204 °C.

`CCOn1c(CC)n[nH]c1=O`: the melting point came out at 93 °C.

Compound `Sc1nc2cc(Cl)c(Cl)cc2s1` returned a melting point of 234 to 236 °C.

`COc1ccc(CC2CC(=O)CCN2C(=O)c2cc(C(F)(F)F)cc(C(F)(F)F)c2)cc1OC` (stereo unspecified): the melting point was 133 °C.

For the compound `NC(=O)c1ccc(CCN2CCN(Cc3ccccc3Cl)CC2)cc1`, the melting point was 170 to 173 °C.

With `O=S(=O)(c1ccccc1)c1cc(Cl)c2oc3c(c2c1)CC(O)CC3` (stereo unspecified), the melting point fell in the range of 236 to 240 °C.

Compound `COc1ccc(NC(=N)c2ccccn2)cc1` registered a melting point of 73 to 75 °C.

`CCCCCCCCCCCCn1nnc(Nc2ccccc2)n1` yielded a melting point of 58 to 61 °C.

Take `COc1ccc(NC(C)=O)c(Sc2ccc([N+](=O)[O-])cc2[N+](=O)[O-])c1`: the melting point lay in the range of 125 to 126 °C.

Regarding `FC(F)(F)c1cc(-c2ccc(Cl)cc2)nc2c(I)cnn12`, the melting point was determined as 155 °C.

Consider `O=C1CCC(Nc2ccc3[nH]c(=O)c(C(=O)O)cc3c2)N1` (stereo unspecified), for which the melting point is above 300 °C.

On to `COc1cc(Cl)c(-n2c(=O)cc(C(F)(F)F)n(C)c2=O)c2sc(Cl)nc12`, for which the melting point was in the range of 185 to 187 °C.

As for `Cc1oc(-c2ccccc2)nc1CCOc1ccc(NC2SC(=O)NC2=O)cc1` (stereo unspecified), the melting point fell in the range of 179 to 180 °C.

Turning to `CCC(=O)c1ccc2c(ccn2S(=O)(=O)c2ccc(C)cc2)c1`, the melting point fell in the range of 162 to 164 °C.

The compound `CCCNCC(=O)N1c2ccccc2N2CCc3cccc(c32)C1C` (stereo unspecified) returned a melting point of 113 to 118 °C.

Regarding `C=C(C)COc1ccc(C(=O)c2ccccc2)cc1`, the melting point lay within 85 to 86.5 °C.

Compound `CC(C)(C)NC(=O)C(=O)c1ccccc1` came in with a melting point of 76 to 77 °C.

On to `CCCCCC(CC(=O)Nc1cc(C(N)=O)ccc1C(C)(C)C)c1cccc(OC)c1OC` (stereo unspecified), for which the melting point is 89 to 90 °C.

On to `CCn1c(=O)c2[nH]c(/C=C/c3cc(OC)cc(OC)c3)nc2n(CC)c1=O`, for which the melting point was above 270 °C.

In turn, `COc1ccc(-c2nc3cnccc3[nH]2)c(OCCCCl)c1` yielded a melting point of 174 to 176 °C.

Turning to `CCCCNC(=O)Oc1ccc2oc3ccccc3c2c1`, the melting point is 124 to 126 °C.

The compound `CC(=O)Oc1nn(-c2ccc(C)cc2)c(=O)c2c1Nc1cc(Cl)ccc1C2` showed a melting point of 238 to 240 °C.

Take `CSc1sc(-c2nc(C)no2)c2c1C(=O)CC(C)(C)C2`: the melting point was in the range of 177 to 180 °C.

As for `CSc1nccn1NCc1cc(C(C)(C)C)c(O)c(C(C)(C)C)c1`, the melting point was 110 to 113 °C.

Compound `CC(C)c1nc2ccc(C=O)cc2nc1C(C)C` gave a melting point of 53 to 55 °C.

For `CC(=O)Nc1ccc(OC(=O)C(CSSCC(NC(C)=O)C(=O)O)NC(C)=O)cc1` (stereo unspecified), the melting point was in the range of 95 to 99 °C.

As to `Cn1ncc(C(=O)N2CCOCC2)c1C(=O)Nc1cc2nc(-c3ccccc3)nn2cc1F`, the melting point is 224 to 225 °C.

`CN1CC(=O)Nc2ccc(F)cc2C1=O` came in with a melting point above 250 °C.

Turning to `CCn1c(=O)ccn(-c2ccc(N)cc2)c1=O`, the melting point is 191 °C.

Compound `CCCN(CCC)C1COc2cccc(C(=O)c3ccc(F)cc3)c2C1` (stereo unspecified) yielded a melting point of 60 to 62 °C.

With `CC(=O)OCn1c(C(=O)OC(C)C)nc(Cl)c1Cl`, the melting point lay within 81 to 82 °C.

In turn, `CC(Oc1ccc(-c2ccc(CC(=O)NC3CC3)cc2)cc1)C(O)CCc1cccnc1` (stereo unspecified) registered a melting point of 117 to 118 °C.

Turning to `Cc1ccc(S(=O)(=O)NCCC(C(=O)NO)C2(CC(C)C)CCN(CCc3ccccc3)C2=O)cc1` (stereo unspecified), the melting point is 166 to 167 °C.

Regarding `C[C@@H]1N(c2ccc(C#N)c(Cl)c2)C(=O)C[C@]1(C)O`, the melting point fell in the range of 93 to 99 °C.

Regarding `Nc1nc2c(s1)CCN(CC=Cc1cccc(OCc3ccccn3)c1)CC2`, the melting point was 35 to 40 °C.

With `CCc1cnc(C2=NC(C)(C(C)C)C(=O)N2)c(C(=O)NCCCCCC(=O)O)c1` (stereo unspecified), the melting point lay within 76 to 81 °C.

Compound `O=C(Nc1ccc(F)cc1)OC1CCCNC1` (stereo unspecified) came in with a melting point of 147 to 148 °C.

In the case of `CCOc1ccc(-n2cnnc2C(F)(F)F)cc1`, the melting point was 70 °C.

`CN(CCCCc1ccc(NC(=O)c2cccc3c(=O)c4ccccc4[nH]c23)cc1)Cc1ccc(F)cc1` yielded a melting point of 151 °C.

As to `Cn1cc(C2=C(c3c4n(c5ccccc35)C[C@@H]3CN(C(=O)OC(C)(C)C)C[C@@H]3C4)C(=O)NC2=O)c2ccccc21` (relative stereo), the melting point was in the range of 173 to 175 °C.

As for `c1ccc(CNc2nnc(-c3ccc(CN4CCCCCC4)s3)s2)cc1`, the melting point was in the range of 165 to 166 °C.

For the compound `COCc1c(C(=O)OC(C)C)ncc2c1c1c(OCc3ccccc3)cccc1n2CC(=O)N(C)Cc1ccccc1`, the melting point lay within 155 to 157 °C.

For the compound `CC(=O)Nc1cccc(C#Cc2ccc(OC3CN4CCC3CC4)nn2)c1` (stereo unspecified), the melting point is 132 to 134 °C.

`CC(C)(CNc1ccc(C2=NNC(=O)CC2)cc1)NCC(O)COc1ccccc1` (stereo unspecified): the melting point was 147 to 148 °C.

`CC(C)c1cc(O)c2c(c1)OC(C)(C)C1=C2CN(CC(=O)NC(N)=O)CC1` showed a melting point of 164 to 166 °C.

In the case of `CCN(CC)C(=O)c1ccc[nH]1`, the melting point was 78.6 to 79.9 °C.

Take `FC(F)(F)c1cccc2c1Sc1ccccc1NC2=S`: the melting point lay in the range of 265 to 267 °C.

For `COc1ccc(C(=O)N2CCc3sccc3C2c2ccc(OC(F)(F)F)cc2)cc1` (stereo unspecified), the melting point lay within 68 to 70 °C.

Regarding `BrCCCN(c1ccccc1)c1ccccc1`, the melting point was 162 to 164 °C.

With `CCC1Cc2cc(C(C)C(=O)O)ccc2O1` (stereo unspecified), the melting point was in the range of 70 to 72 °C.

Compound `CN(C)Nc1cc(F)ccc1[N+](=O)[O-]` registered a melting point of 67 to 71 °C.

`CCC(C)COC(=O)Oc1ccc(-c2ccc(O)cc2)cc1` (stereo unspecified) displayed a melting point of 129 to 130 °C.

Compound `COc1cc(O)ccc1/C=C/C(=O)CC(=O)/C=C/c1cc(OCc2ccccc2)ccc1-c1ccccc1` returned a melting point of 175 to 180 °C.

Regarding `COc1ccc(C2=CC(=Nc3c(C)cc(C)cc3C)N(C)CN2)cc1OC`, the melting point fell in the range of 165 to 166 °C.

In turn, `COc1ccc(-n2cc(CCCO)c(C(C)C)n2)nn1` returned a melting point of 122 to 123 °C.

`CCOC(=O)C1=C(C(F)(F)F)Nc2n[nH]cc2C1c1ccc(OC)cc1` (stereo unspecified) registered a melting point of 159 to 161 °C.

Regarding `O=C(O)C1C=CCn2c(=O)n(CCCS)c(=O)n21` (stereo unspecified), the melting point was in the range of 119 to 121 °C.

For the compound `COC(=O)[C@H](Cc1ccccc1)NC(=O)[C@H](Cc1ccccc1)NC(=O)[C@H](CC(N)=O)NC(=O)OC(C)(C)C`, the melting point was 192 to 194 °C.

As to `O=C1C=CC(O)(c2ccccc2)C=C1`, the melting point lay within 102 to 103 °C.

In the case of `COC(=O)C(C)(C)Sc1cccc(OCc2ccc(-c3ccc([N+](=O)[O-])cc3)o2)c1`, the melting point was 81 to 82 °C.

As to `C=CC(=O)N1CCC(C(=O)O)CC1`, the melting point lay in the range of 109 to 110 °C.

Turning to `CCCc1cc2c(c(C)c1O)CCO2`, the melting point was in the range of 72 to 73 °C.

The compound `CCC(=O)c1[nH]c(=O)[nH]c1C` returned a melting point of 270 to 271 °C.

`CS(=O)(=O)c1ccc(-c2cc(C(F)(F)F)nn2-c2ccc(O)cc2)cc1`: the melting point lay in the range of 243 to 244 °C.

Consider `Cc1ccc(C(Cl)=NOS(=O)(=O)CCCCl)cc1`, for which the melting point was in the range of 56 to 58 °C.

In turn, `CCOC(=O)c1cnc2c(I)cc(COC(C)=O)cc2c1O` gave a melting point of 119 to 123 °C.

The compound `CC1(C)CSc2c(-c3ccccc3)c(-c3ccc(Cl)cc3)cn2C1` came in with a melting point of 147 to 148 °C.

`COC(=O)c1ccc(NC(=O)[C@H](Cc2ccc(-c3ccccc3)cc2)NCP(=O)(OC)OC)cc1` returned a melting point of 128 to 129 °C.

As for `NS(=O)(=O)c1cccc(-c2cn(-c3cc(C(F)(F)F)cc(-c4ccc(C(F)(F)F)cc4)n3)cn2)c1`, the melting point was above 266 °C.

For `CC(C)(C)c1ccc(C(CO)NC(=O)c2c(F)c(F)cc(F)c2F)cc1` (stereo unspecified), the melting point fell in the range of 158 to 160 °C.

Regarding `CN(C)Cc1ccc(CN)cc1`, the melting point was 38 to 39 °C.

For the compound `O=C1N(Cc2noc(C(F)(F)F)n2)c2ccccc2C12COc1cc3c(cc12)OCCO3` (stereo unspecified), the melting point lay within 159 to 160 °C.

`O=C(O)[C@@H]1CCCN1C(=O)c1cc2cc3c(cc2c2cc(O)ccc12)OCO3` came in with a melting point of 230 to 231 °C.

In turn, `Cc1ccc(-c2ncc(C)cn2)cc1` showed a melting point of 122 to 123 °C.

The compound `CC(C)COP(C)(=O)CC(=O)CNC(=O)OC(C)(C)C` (stereo unspecified) showed a melting point of 65 to 68 °C.

As for `O=C(CCCCCCS(=O)c1ccc(Cl)cc1)NO` (stereo unspecified), the melting point is 103 to 105 °C.

Compound `COC(=O)CCCCCCc1nc(C)sc1C(=O)O` returned a melting point of 106 to 107 °C.

The compound `N#CC1CN1C(=O)NC(=O)C(Cl)(Cl)Cl` (stereo unspecified) showed a melting point of 150 to 152 °C.

`COc1ccc(S(=O)(=O)n2ccc3ccnc(-c4ccccc4)c32)cc1` yielded a melting point of 149 to 151 °C.

As for `CN(Cc1ccc(NC(=O)C2=Cc3cc(-c4ccc(Cl)c(Cl)c4)ccc3S(=O)(=O)CC2)cc1)C1CCOCC1`, the melting point was in the range of 235 to 237 °C.

As for `Cc1ccccc1C1CCN(C(=O)CCC(=O)c2ccc3c(c2)CCNCC3)CC1`, the melting point was 93 to 95 °C.
